Assay results from PMC7994892, “The M. tuberculosis Rv1523 Methyltransferase Promotes Drug Resistance Through Methylation-Mediated Cell Wall Remodeling and Modulates Macrophages Immune Responses” (Frontiers in Cellular and Infection Microbiology, 2021).

Target: Rv1523 MTase (Mycobacterium tuberculosis, UniProt Q50584)
Sequence (Q50584 entry or part of it): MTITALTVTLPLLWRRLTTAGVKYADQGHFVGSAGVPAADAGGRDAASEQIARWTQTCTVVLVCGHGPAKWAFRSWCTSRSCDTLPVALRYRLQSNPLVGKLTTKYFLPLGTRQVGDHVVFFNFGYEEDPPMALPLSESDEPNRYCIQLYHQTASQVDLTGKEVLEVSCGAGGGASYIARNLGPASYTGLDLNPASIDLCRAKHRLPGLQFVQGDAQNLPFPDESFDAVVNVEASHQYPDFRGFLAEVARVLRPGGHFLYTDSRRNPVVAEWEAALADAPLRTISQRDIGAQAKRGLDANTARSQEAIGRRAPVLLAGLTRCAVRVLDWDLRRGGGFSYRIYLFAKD

## C[S+](CC[C@H](N)C(=O)O)C[C@H]1O[C@@H](n2cnc3c(N)ncnc32)[C@H](O)[C@@H]1O (stereo partly shown) [S-adenosyl methionine]
  coupled colorimetric SAM methyltransferase assay, 510 nm: Rv1523 MTase was able to transfer methyl group from SAM to the cell wall component
